# Data published in patent publication US20220117266A1, “NICKEL CHELATION THERAPY” (priority 2019, published 2022).
# Tests used:
# C. jejuni 81-176 = experiment: Growth inhibition, liquid 96-well checkerboard (OD600, MIC, MBC); assay type: cell-based, Campylobacter jejuni; conditions: 24 h
# Experimental: Growth inhibition assays: liquid (96-well) plates experiments. This type of experiment can only be conducted with C. jejuni since the gas requirement for C. concisus (H2-enriched microaerobic) is not compatible with the use of 96-well plates. C. jejuni cells were grown as described above, harvested, and resuspended in sterile NaCl (8 g/L) to an OD600 of 0.1, corresponding approximately to 5×10^8 to 1×10^9 cells/mL. […] Wells were serially (2-fold) diluted in each direction (horizontal and vertical) to introduce all combinations. Wells with no DMG or metal compounds served as (positive) growth controls, and wells with no bacteria served as background (negative growth) controls. A typical protocol and loading plan are described in Table 7. The starting inoculum was at OD600 of 0.05, which corresponds approximately to 2.5×10^8 cells/mL to 5×10^8 cells/mL. After 24 hours incubation under microaerobic conditions at 37° C., OD600 was recorded using a 96 well-plate reader (Microtek). […] Resulting growth (or lack of growth) was examined after overnight culturing; the lowest concentration that inhibits 99.9% of the original culture was defined as MBC. MIC and MBC were determined based on tests (plates) done in triplicate.
# [1] = tested on: C. jejuni (strain NCTC 11168); experiment: C. jejuni-chicken colonization experiment; assay type: in vivo, chickens
# Experimental: Since chickens are natural hosts for C. jejuni, and chicken meat is one of the main sources of campylobacteriosis in humans, it was important to test the efficacy of DMG alone or in combination with copper in this animal model. Two independent trials were conducted, as described in FIG. 22. In both trials, the treatment was administered through ad libitum drinks, starting two to three days before C. jejuni inoculation (with strain NCTC 11168), and going through the end of each experiment. […] Nine days after inoculation with C. jejuni, chickens were euthanized, and their ceca were isolated for bacterial count. […] The treatment was administered two days before inoculation with C. jejuni, and chicken ceca were harvested eight days after inoculation.
# [2] = tested on: Helicobacter pylori 43504; experiment: Biofilm inhibition assay (crystal violet); assay type: cell-based; conditions: 48 hours with DMG
# Experimental: (§1) Biofilm inhibition assay. S. Typhimurium and K. pneumoniae cultures were adjusted to an optical density (OD600) of 0.1 in fresh LB broth. H. pylori culture was adjusted to an OD600 of 0.15 in brain heart infusion (BHI) supplemented with 0.4% β-cyclodextran. […] Plates containing S. Typhimurium and K. pneumoniae were incubated at 37° C. aerobically without shaking for 18 hours. Plates containing H. pylori were incubated at 37° C. microaerobically without shaking for 48 hours. After incubation with (Na2DMG) a crystal violet biofilm assay was performed as previously described with modifications (Kwasny et al. 2010. Current Protocols in Pharmacology 50:13A. 8.1-13A. 8.23). Briefly, supernatant was removed from the wells. Next, adherent cells were gently washed with phosphate-buffered saline (PBS) and allowed to air dry for 15 minutes. Cells were then heat fixed for one hour at 60° C. before staining with 0.5% crystal violet for 5 minutes. After the crystal violet was thoroughly washed from the wells with distilled deionized water, cells were air dried for 15 minutes. Acetic acid (33%) was then added to the wells to solubilize the crystal violet. The crystal violet-acetic acid solution was transferred to a clean 96 well plate and the OD600 was measured.
# [3] = tested on: Klebsiella pneumoniae ATCC BAA2472; experiment: Biofilm inhibition assay (crystal violet); assay type: cell-based; conditions: 18 hours with DMG
# Experimental: as §1
# [4] = Experiment 1, ad libitum CuSO4 (0.2 mM) + DMG (10 mM), total n=6, 9 days p.i.
# [5] = Experiment 2, ad libitum CuSO4 (0.2 mM) + DMG (15 mM), total n=5, 8 days p.i.
# [6] = Experiment 2, ad libitum DMG (15 mM), total n=7, 8 days p.i.
# [7] = first trial, DMG (10 mM) combined with CuSO4 (0.2 mM)
structure (smiles),measurement,setting,value
"CC(=NO)C(C)=NO [DMG, dimethylglyoxime]",OD600,C. jejuni 81-176; DMG 0.062 mM + CuSO4 0 uM,0.31
same,OD600,C. jejuni 81-176; DMG 0.062 mM + CuSO4 2 uM,0.37
same,OD600,C. jejuni 81-176; DMG 0.062 mM + CuSO4 4 uM,0.31
same,OD600,C. jejuni 81-176; DMG 0.062 mM + CuSO4 8 uM,0.33
same,OD600,C. jejuni 81-176; DMG 0.062 mM + CuSO4 16 uM,0.34
same,OD600,C. jejuni 81-176; DMG 0.062 mM + CuSO4 32 uM,0.24
same,OD600,C. jejuni 81-176; DMG 0.062 mM + CuSO4 64 uM,0.22
same,OD600,C. jejuni 81-176; DMG 0.062 mM + CuSO4 128 uM,0.24
same,OD600,C. jejuni 81-176; DMG 0.062 mM + CuSO4 256 uM,0.35
same,OD600,C. jejuni 81-176; DMG 0.062 mM + CuSO4 512 uM,0.34
same,OD600,C. jejuni 81-176; DMG 0.062 mM + CuSO4 1024 uM,0.47
same,OD600,C. jejuni 81-176; DMG 0.125 mM + CuSO4 0 uM,0.25
same,OD600,C. jejuni 81-176; DMG 0.125 mM + CuSO4 2 uM,0.31
same,OD600,C. jejuni 81-176; DMG 0.125 mM + CuSO4 4 uM,0.27
same,OD600,C. jejuni 81-176; DMG 0.125 mM + CuSO4 8 uM,0.31
same,OD600,C. jejuni 81-176; DMG 0.125 mM + CuSO4 16 uM,0.33
same,OD600,C. jejuni 81-176; DMG 0.125 mM + CuSO4 32 uM,0.26
same,OD600,C. jejuni 81-176; DMG 0.125 mM + CuSO4 64 uM,0.23
same,OD600,C. jejuni 81-176; DMG 0.125 mM + CuSO4 128 uM,0.24
same,OD600,C. jejuni 81-176; DMG 0.125 mM + CuSO4 256 uM,0.27
same,OD600,C. jejuni 81-176; DMG 0.125 mM + CuSO4 512 uM,0.34
same,OD600,C. jejuni 81-176; DMG 0.125 mM + CuSO4 1024 uM,0.47
same,OD600,C. jejuni 81-176; DMG 0.25 mM + CuSO4 0 uM,0.26
same,OD600,C. jejuni 81-176; DMG 0.25 mM + CuSO4 2 uM,0.31
same,OD600,C. jejuni 81-176; DMG 0.25 mM + CuSO4 4 uM,0.24
same,OD600,C. jejuni 81-176; DMG 0.25 mM + CuSO4 8 uM,0.37
same,OD600,C. jejuni 81-176; DMG 0.25 mM + CuSO4 16 uM,0.33
same,OD600,C. jejuni 81-176; DMG 0.25 mM + CuSO4 32 uM,0.25
same,OD600,C. jejuni 81-176; DMG 0.25 mM + CuSO4 64 uM,0.22
same,OD600,C. jejuni 81-176; DMG 0.25 mM + CuSO4 128 uM,0.24
same,OD600,C. jejuni 81-176; DMG 0.25 mM + CuSO4 256 uM,0.24
same,OD600,C. jejuni 81-176; DMG 0.25 mM + CuSO4 512 uM,0.27
same,OD600,C. jejuni 81-176; DMG 0.25 mM + CuSO4 1024 uM,0.30
same,OD600,C. jejuni 81-176; DMG 0.5 mM + CuSO4 0 uM,0.22
same,OD600,C. jejuni 81-176; DMG 0.5 mM + CuSO4 2 uM,0.31
same,OD600,C. jejuni 81-176; DMG 0.5 mM + CuSO4 4 uM,0.25
same,OD600,C. jejuni 81-176; DMG 0.5 mM + CuSO4 8 uM,0.23
same,OD600,C. jejuni 81-176; DMG 0.5 mM + CuSO4 16 uM,0.34
same,OD600,C. jejuni 81-176; DMG 0.5 mM + CuSO4 32 uM,0.21
same,OD600,C. jejuni 81-176; DMG 0.5 mM + CuSO4 64 uM,0.19
same,OD600,C. jejuni 81-176; DMG 0.5 mM + CuSO4 128 uM,0.20
same,OD600,C. jejuni 81-176; DMG 0.5 mM + CuSO4 256 uM,0.29
same,OD600,C. jejuni 81-176; DMG 0.5 mM + CuSO4 512 uM,0.14
same,OD600,C. jejuni 81-176; DMG 0.5 mM + CuSO4 1024 uM,0.09
same,OD600,C. jejuni 81-176; DMG 1 mM + CuSO4 0 uM,0.20
same,OD600,C. jejuni 81-176; DMG 1 mM + CuSO4 2 uM,0.27
same,OD600,C. jejuni 81-176; DMG 1 mM + CuSO4 4 uM,0.23
same,OD600,C. jejuni 81-176; DMG 1 mM + CuSO4 8 uM,0.21
same,OD600,C. jejuni 81-176; DMG 1 mM + CuSO4 16 uM,0.37
same,OD600,C. jejuni 81-176; DMG 1 mM + CuSO4 32 uM,0.24
same,OD600,C. jejuni 81-176; DMG 1 mM + CuSO4 64 uM,0.19
same,OD600,C. jejuni 81-176; DMG 1 mM + CuSO4 128 uM,0.10
same,OD600,C. jejuni 81-176; DMG 1 mM + CuSO4 256 uM,0.02
same,OD600,C. jejuni 81-176; DMG 1 mM + CuSO4 512 uM,0.02
same,OD600,C. jejuni 81-176; DMG 1 mM + CuSO4 1024 uM,0.04
same,OD600,C. jejuni 81-176; DMG 2 mM + CuSO4 0 uM,0.24
same,OD600,C. jejuni 81-176; DMG 2 mM + CuSO4 2 uM,0.34
same,OD600,C. jejuni 81-176; DMG 2 mM + CuSO4 4 uM,0.25
same,OD600,C. jejuni 81-176; DMG 2 mM + CuSO4 8 uM,0.26
same,OD600,C. jejuni 81-176; DMG 2 mM + CuSO4 16 uM,0.24
same,OD600,C. jejuni 81-176; DMG 2 mM + CuSO4 32 uM,0.17
same,OD600,C. jejuni 81-176; DMG 2 mM + CuSO4 64 uM,0.01
same,OD600,C. jejuni 81-176; DMG 2 mM + CuSO4 128 uM,0.01
same,OD600,C. jejuni 81-176; DMG 2 mM + CuSO4 256 uM,0.01
same,OD600,C. jejuni 81-176; DMG 2 mM + CuSO4 512 uM,0.02
same,OD600,C. jejuni 81-176; DMG 2 mM + CuSO4 1024 uM,0.04
same,OD600,C. jejuni 81-176; DMG 4 mM + CuSO4 0 uM,0.19
same,OD600,C. jejuni 81-176; DMG 4 mM + CuSO4 2 uM,0.26
same,OD600,C. jejuni 81-176; DMG 4 mM + CuSO4 4 uM,0.15
same,OD600,C. jejuni 81-176; DMG 4 mM + CuSO4 8 uM,0.04
same,OD600,C. jejuni 81-176; DMG 4 mM + CuSO4 16 uM,0.00
same,OD600,C. jejuni 81-176; DMG 4 mM + CuSO4 32 uM,0.00
same,OD600,C. jejuni 81-176; DMG 4 mM + CuSO4 64 uM,0.01
same,OD600,C. jejuni 81-176; DMG 4 mM + CuSO4 128 uM,0.01
same,OD600,C. jejuni 81-176; DMG 4 mM + CuSO4 256 uM,0.02
same,OD600,C. jejuni 81-176; DMG 4 mM + CuSO4 512 uM,0.02
same,OD600,C. jejuni 81-176; DMG 4 mM + CuSO4 1024 uM,0.04
same,C. jejuni Average CFUs per g of cecum (x10^8),"[1]; Experiment 1, ad libitum CuSO4 (0.2 mM) + DMG (10 mM), 9 days p.i.",1.12 x10^8 CFUs per g of cecum
same,Chickens Cj-free (n=),[1]; [4],2
same,Chickens Colonized (n=),[1]; [4],4
same,C. jejuni Average CFUs per g of cecum (x10^8),"[1]; Experiment 2, ad libitum CuSO4 (0.2 mM) + DMG (15 mM), 8 days p.i.",1.99 x10^8 CFUs per g of cecum
same,Chickens Cj-free (n=),[1]; [5],0
same,Chickens Colonized (n=),[1]; [5],5
same,C. jejuni Average CFUs per g of cecum (x10^8),"[1]; Experiment 2, ad libitum DMG (15 mM), 8 days p.i.",2.38 x10^8 CFUs per g of cecum
same,Chickens Cj-free (n=),[1]; [6],1
same,Chickens Colonized (n=),[1]; [6],6
same,chickens in which C. jejuni was not recovered,"[1]; first trial, Cu-DMG treated group (n=6)",33%
same,decrease in bacterial count in the cecum compared to the copper-only control,[1]; [7],5 fold
same,decrease in bacterial count in the cecum compared to the water-only control,[1]; [7],3 fold
same,decrease in bacterial burden compared to the water control,"[1]; second trial, DMG (15 mM) combined with CuSO4 (0.2 mM)",approximately 3.5 fold
same,less bacterial colonization of the cecum compared to the water only control,"[1]; second trial, DMG only (15 mM)",approximately 3 fold
same,biofilm formation,[2],able to inhibit biofilm formation
same,biofilm formation,[3],able to inhibit biofilm formation
